# From US5667764A, “Compounds, compositions and methods for binding bio-affecting substances to surface membranes of bio-particles” (Zynaxis, Inc., priority 1992, dated 1997)
# Columns and labels:
# [1] = system: red blood cell ghosts (plasma membrane); assay: Membrane retention coefficient (MRC) in red blood cell ghosts; type: binding; settings: for Δ MRC: change in MRC to 24 hr
# Method: Determination of Membrane Retention Coefficient
# The membrane retention coefficient (MRC) provides information regarding how well a given compound is retained in the plasma membrane of a cell and is determined as described below.
# Generation of red blood cell ghosts for use as a model membrane is achieved by centrifuging whole blood at 300×g for 15 minutes, removal of the plasma and resuspension of the cell pellet in 0.83% (w/v) ammonium chloride. The ghosts are pelleted from the ammonium chloride by centrifuging at 10,000×g for 10 minutes. This ammonium chloride washing procedure is repeated a minimum of five times to insure that complete release of hemoglobin from the cells has occured. The ghosts are labeled with the compound in question at a concentration allowing for detection of the labeled ghosts by instrumental analysis or fluorescent microscopic methods, and at a concentration similar to those that would be used to label cells for a specific application as described above. For the determinations hereinbelow stock solutions of the compounds in question were prepared in ethanol at a molar concentration of 2×10^-3, and working dilutions of the compounds were prepared in iso-osmotic sucrose (52 g/500 ml distilled water). After incubation of the ghosts at an approximate concentration of 1×10^9 ghosts/ml in the working dilutions of the compounds for 10 minutes, the samples were centrifuged at 10,000×g to pellet the ghosts and the staining solution was aspirated from the samples. The labeled ghosts were resuspended in 1 ml of phosphate buffered saline solution containing 10% fetal bovine serum (PBS-FBS). Triplicate 20 ul aliquots were removed from each sample for the determination of the amount of total compound present. The samples were centrifuged as described above and triplicate 20 ul aliquots were removed from the supernatant for quantitative determination of amount of unbound compound present.
# After sampling, the supernatant was aspirated and the red cell ghost pellet was resuspended in 1.0 ml of the PBS-FBS, which was once again sampled as described above. This procedure was repeated at least six times, allowing for detection of rapidly released compounds and was monitored after times equal to or greater than 24 hours to allow for the detection of more slowly released compounds. For the determination of the amount of compound present in each sample, the 20 ul aliquots were extracted into 3.0 ml of n-butanol by shaking. The samples were centrifuged at 3000×g to remove membrane debris and the butanol fractions were assayed for compound concentration. Fluorescent compounds are assayed in this manner using peak excitation and emission wave lengths for the particular compounds being assayed to determine the fluorescence units for each sample.
# The determination of the amount of compound present in each sample as described above allows for the calculation of the MRC for each washing or fixed time point. The value is obtained by the following formula: […]
# wherein CT represents the amount of compound present (in units determined by the method used to assay the compound) in the total sample and CS represents the amount of compound present in the supernatant sample for that particular time point. The comparison of the MRC values defines criteria for identification of the compounds of this invention, these criteria being: 1) the MRC values determined for each washing steps should have a value of at least about 90 and 2) the percent difference between MRC values over at least a 24 hour time period should be less than about 10%. [drawing 14]
# The data provided in Table I below are the results from one experiment and serve as an example of the MRC determination. […]
# membrane ghosts = assay: Membrane binding stability (MBS) assay in membrane ghosts with 5% albumin; settings: 24 hours, Table III
# Excerpt: Determination of Membrane Binding Stability
# For example, very stable binding to membranes might be required for applications such as delivery of therapeutic radionuclides to tumor sites, as loss of compound could lead to the radionuclide producing its toxic effect at non-tumor sites. On the other hand, more rapid loss of compound from biomembranes may be desirable for application involving controlled delivery rates of therapeutic agents. Accordingly, there is described hereinbelow an assay for determining MBS under conditions approximating those found in vivo.
# In carrying out this assay, approximately physiological concentrations of serum albumin (5%) are used. […] To better approximate the effects of large fluid volumes to which labelled cells are exposed in vivo, the assay for MBS is carried out by suspending a decreasing number of labeled membrane ghosts in a fixed volume of albumin-containing saline. At 24 hours, the total amount of label present is determined by sampling the well mixed suspension; subsequently, the membrane ghosts are pelleted by centrifugation and the amount of label released into the supernatant is determined and expressed as a percent of total label. Percent retention is plotted against number of ghosts per ml. of suspension, and MBS is determined as the area under the curve between 5×10^7 ghosts/ml. and 4×10^8 ghosts/ml.
SMILES,"Membrane retention coefficient (MRC), 24 HR [1]",Δ MRC [1],"Membrane retention coefficient (MRC), WASH 1 [1]","Membrane retention coefficient (MRC), WASH 2 [1]","Membrane retention coefficient (MRC), WASH 3 [1]","Membrane retention coefficient (MRC), WASH 4 [1]","Membrane retention coefficient (MRC), WASH 5 [1]","Membrane retention coefficient (MRC), WASH 6 [1]",MBS (membrane ghosts)
CCCCCCCCCCN1C(=CC=CC2=[N+](CCCCCCCCCC)c3ccccc3C2(C)C)C(C)(C)c2ccccc21 [B],54.08,42.95%,83.28,92.36,94.63,94.94,95.33,94.80,
CCCCCCCCCCCCCCCCCCN1C(=CC=Cc2oc3ccccc3[n+]2CCCCC)Oc2ccccc21 [J],87.24,10.57%,94.07,96.99,98.66,98.39,98.82,97.56,
CCCCCCCCCCCCCCN1C(=CC=CC2=[N+](CCCCCCCCCCCCCC)c3ccccc3C2(C)C)C(C)(C)c2ccccc21 [C],93.90,5.26%,94.85,97.24,98.40,98.64,98.43,99.12,
CCCCCCCCCCCCCCCCCC[n+]1c2cc(N(C)C)ccc2cc2ccc(N(C)C)cc21 [M],42.88,55.79%,91.01,95.12,95.82,96.42,96.27,97.01,
CCCCCN1C(=CC=CC2=[N+](CCCCC)c3ccccc3C2(C)C)C(C)(C)c2ccccc21 [A],0.00,100.00%,51.63,51.12,44.82,41.39,12.59,17.48,
CCCCCCCCCCCCCCCCCCN1C(=CC=Cc2sc3ccccc3[n+]2CCCCCCCCCCCCCCCCCC)Sc2ccccc21 [AA],,,,,,,,,94 ± 1.5%
CCCCCCCCCCCCCCCCCCN1C(=CC=Cc2oc3ccccc3[n+]2CCC)Oc2ccccc21 [E],53.81,44.62%,90.69,94.74,96.28,96.74,96.41,97.17,
CCCCCCCCCCCCCCCCCCN1C(=CC=Cc2oc3ccccc3[n+]2CCCCCCCCCCCCCCCCCC)Oc2ccccc21 [Y],,,,,,,,,93 ± 1.0%
CCC[n+]1c(C=CC=C2Oc3ccccc3N2CCC(C)CCCC(C)CCCC(C)CCCC(C)C)oc2ccccc21 (centres unmarked) [F],36.77,61.64%,88.82,93.94,95.15,95.26,94.51,96.64,
CCCCCCCCCCCCCCN1C(=CC=Cc2oc3ccccc3[n+]2CCC)Oc2ccccc21 [D],18.84,75.82%,50.40,61.20,64.45,65.85,70.62,77.92,
CCCCCCCCCCCCCCCCCCCCCCN1C(=CC=Cc2oc3ccccc3[n+]2CCC)Oc2ccccc21 [K],97.90,1.56%,97.35,98.47,98.16,98.99,99.01,99.46,
CCCCCCCCCCCCCCCCCCN1C(=CC=Cc2oc3ccccc3[n+]2CCCCCCCC)Oc2ccccc21 [I],97.65,2.08%,94.69,98.24,98.32,98.78,98.96,99.73,
CCCCCCCCCCCCCCN1C(=CC=Cc2sc3ccccc3[n+]2CCCCCCCCCCCCCC)Sc2ccccc21 [X],,,,,,,,,91 ± 1.3%
CCCCCCCCCCCCCCCCCCCCCCN1C(=CC=Cc2oc3ccccc3[n+]2CCC)Oc2ccccc21 [U],,,,,,,,,47 ± 3.1%
CCCCCCCCCCCCCCCCCCCCCCCCCC[n+]1c2cc(N(C)C)ccc2cc2ccc(N(C)C)cc21 [N],98.27,0.61%,95.97,97.51,98.32,98.48,98.71,98.88,
CCCCCCCCCCCCCCCCCCCCCCN1C(=CC=Cc2oc3ccccc3[n+]2CCC)Oc2ccccc21 [G],96.90,1.46%,94.42,96.96,98.03,97.93,97.92,98.34,
CCCCCCCCCCCCCCCCCCCCN1C(=CC=Cc2oc3ccccc3[n+]2CCC)Oc2ccccc21 [Compound H],90.10,8.43%,91.70,97.22,97.97,98.24,98.09,98.40,
CCCCCCCCCCCCCCN1C(=CC=CC2=[N+](CCC)c3ccccc3C2(C)C)C(C)(C)c2ccccc21 [AC],,,,,,,,,10 ± 2.1%
CCCCCCCCCCCCCCCCCCCCCCN1C(=CC=Cc2sc3ccccc3[n+]2CCC)Sc2ccccc21 [V],,,,,,,,,64 ± 3.4%
CCCCCCCCCCCCCCCCCCCCCC[n+]1c2cc(N(C)C)ccc2cc2ccc(N(C)C)cc21 [L],96.82,3.12%,97.90,98.89,98.90,99.18,99.09,99.22,
CCCCCCCCCCCCCCN1C(=CC=Cc2oc3ccccc3[n+]2CCCCCCCCCCCCCC)Oc2ccccc21 [W],,,,,,,,,77 ± 1.1%
